From patent US20100267732A1, “Prognostic Molecular Markers for ET-743 Treatment” (PHARMA MAR, S.A., priority 2007, published 2010)

How the values were obtained:
sarcoma [1] = test: Clinical outcome of sarcoma patients treated with ET-743 (Example 1, 160 patients; by XPG mRNA, XPG protein, BRCA1 mRNA); assay type: in vivo, human; design: Tumor Control Rate (CR+PR+MR+SD 6 mo) / patients achieving progression free survival 6 months (PFS6) / survival at 12 months: concentration or dose not given beside the values
Description: In this study, 160 paraffin embedded tumor samples from sarcoma patients before the treatment with any chemotherapy agent have been evaluated.
(§1) The majority of patients were treated before with one or several chemotherapy agents and later they followed a treatment with ET-743. The dosage of intravenous infusion (IV) of ET-743 given to the different patients was within the range of 1.650-1.0 mg/m^2; the schedules were 24 hours or 3 hour IV infusion with a three week interval between cycles; and the number of cycles ranged from 1 up to 44 cycles in some patients.
The clinical data from the patients was collected in the clinical data collection form and matched with the molecular data after completion of the mRNA and protein expression levels determination (Table 1).
SAS v8.2 (statistical software) was used for all the statistical analysis. The statistical techniques for univariate, bivariate and multivariate variables were chosen, according with the nature of variables that will be analysed, i.e. when the dependent variable is a temporal variable with censor status the Cox regression would be applied, when correlation between variables will be computed the Pearson and/or Spearman measures would be used. P-values below 0.05 will be considered statistically significant in all tests, when appropriate 95% confidence intervals will be presented too.
A total of 160 paraffin embedded tumor samples providing evaluable results for mRNA or protein expression were analysed. […] These samples came from sarcoma patients before being treated with a chemotherapy agent.

sarcoma [2] = test: Clinical outcome of sarcoma patients treated with ET-743 (Example 2, 168 patients; by XPG SNP Asp1104His genotype, XPG mRNA, XPG protein); assay type: in vivo, human; design: surviving patients at two years after treatment / Tumor Control Rate (CR+PR+MR+SD≧6 mo) / patients achieving progression free survival ≧6 months (PFS6) / survival at 12 months / rate of survival after 2 years: concentration or dose not given beside the values
Description: In this study, 168 paraffin embedded tumor samples from sarcoma patients before the treatment with any chemotherapy agent have been evaluated.
as §1
The clinical data from the patients was collected in the clinical data collection form and matched with the molecular data (Table 5)
A total of 168 paraffin embedded tumor samples providing evaluable results for at least one of the biomarkers (XPGmRNA, XPG protein, XPGAsp1104His or BRCA 1 mRNA) were analysed.

[3] = high vs low XPG mRNA subpopulation
[4] = high vs low XPG protein subpopulation
[5] = intermediate subpopulation (high BRCA1 and high XPG, or low BRCA1 and low XPG)
[6] = whole cohort, 51 patients still censored
[7] = whole cohort, Kaplan-Meier (FIG. 8)

COc1cc2c(cc1O)CCN[C@]21CS[C@@H]2c3c(OC(C)=O)c(C)c4c(c3[C@H](COC1=O)N1[C@@H]2[C@H]2c3c(cc(C)c(OC)c3O)C[C@@H]([C@@H]1O)N2C)OCO4 [ET-743, ecteinascidin 743]
Minor Responses (MR) (sarcoma [1]; 140 evaluable patients): 7.1% | Tumor Control Rate (CR+PR+MR+SD 6 mo) (sarcoma [1]; 140 evaluable patients): 47.1% | overall response rate (RR), Complete+Partial Responses (sarcoma [1]; 140 evaluable patients): 16.4% | patients achieving progression free survival 6 months (PFS6) (sarcoma [1]; 140 evaluable patients): 41.4% | CR + PR + MR + SD > 6 (sarcoma [1]; High BRCA1, High XPG): 11/26 (42%) | Median PFS (sarcoma [1]; High BRCA1, High XPG): 2.5 m | Median Survival (sarcoma [1]; High BRCA1, High XPG): 13.6 m | PFS 6 (sarcoma [1]; High BRCA1, High XPG): 38.5% | PFS > 6 Months rate (sarcoma [1]; High BRCA1, High XPG): 9/26 (35%) | CR + PR + MR + SD > 6 (sarcoma [1]; High BRCA1, Low XPG): 4/20 (20%) | Median PFS (sarcoma [1]; High BRCA1, Low XPG): 2.5 m | Median Survival (sarcoma [1]; High BRCA1, Low XPG): 6.6 m | PFS 6 (sarcoma [1]; High BRCA1, Low XPG): 22.2% | PFS > 6 Months rate (sarcoma [1]; High BRCA1, Low XPG): 4/21 (19%) | CR + PR (sarcoma [1]; High BRCA1 mRNA, High XPG mRNA): 5/26 (19%) | CR + PR (sarcoma [1]; High BRCA1 mRNA, Low XPG mRNA): 0/20 (0%) | CR + PR + MR + SD > 6 (sarcoma [1]; Low BRCA1, High XPG): 12/19 (63%) | Median PFS (sarcoma [1]; Low BRCA1, High XPG): 7.3 m | Median Survival (sarcoma [1]; Low BRCA1, High XPG): 15.4 m | PFS 6 (sarcoma [1]; Low BRCA1, High XPG): 55.7% | PFS > 6 Months rate (sarcoma [1]; Low BRCA1, High XPG): 10/21 (48%) | CR + PR + MR + SD > 6 (sarcoma [1]; Low BRCA1, Low XPG): 14/31 (45%) | Median PFS (sarcoma [1]; Low BRCA1, Low XPG): 3.4 m | Median Survival (sarcoma [1]; Low BRCA1, Low XPG): 11.7 m | PFS 6 (sarcoma [1]; Low BRCA1, Low XPG): 35.5% | PFS > 6 Months rate (sarcoma [1]; Low BRCA1, Low XPG): 12/27 (61%) | CR + PR (sarcoma [1]; Low BRCA1 mRNA, High XPG mRNA): 3/19 (16%) | CR + PR (sarcoma [1]; Low BRCA1 mRNA, Low XPG mRNA): 6/31 (19%) | CR + PR (sarcoma [1]; XPG mRNA < 1.55): 6/59 (10%) | CR + PR + MR + SD ≧ 6 (sarcoma [1]; XPG mRNA < 1.55): 21/59 (36%) | Median PFS (KM) (sarcoma [1]; XPG mRNA < 1.55): 2.5 m | Median Survival (KM) (sarcoma [1]; XPG mRNA < 1.55): 9.3 m | PFS6 (KM) (sarcoma [1]; XPG mRNA < 1.55): 29.5% | PFS ≧ 6 Months rate (sarcoma [1]; XPG mRNA < 1.55): 18/60 (30%) | CR + PR (sarcoma [1]; XPG mRNA ≧ 1.55): 11/57 (19%) | CR + PR + MR + SD ≧ 6 (sarcoma [1]; XPG mRNA ≧ 1.55): 32/57 (56%) | Median PFS (KM) (sarcoma [1]; XPG mRNA ≧ 1.55): 7.1 m | Median Survival (KM) (sarcoma [1]; XPG mRNA ≧ 1.55): 19.1 m | PFS6 (KM) (sarcoma [1]; XPG mRNA ≧ 1.55): 52.1% | PFS ≧ 6 Months rate (sarcoma [1]; XPG mRNA ≧ 1.55): 28/59 (47.5%) | CR + PR + MR + SD ≧ 6 (sarcoma [1]; XPG protein 0 + 1): 27/64 (42%) | Median PFS (KM) (sarcoma [1]; XPG protein 0 + 1): 3.7 m | Median Survival (KM) (sarcoma [1]; XPG protein 0 + 1): 11.7 m | PFS6 (KM) (sarcoma [1]; XPG protein 0 + 1): 39.9% | PFS ≧ 6 Months (sarcoma [1]; XPG protein 0 + 1): 26/64 (39%) | CR + PR + MR + SD ≧ 6 (sarcoma [1]; XPG protein 2 + 3): 15/25 (60%) | Median PFS (KM) (sarcoma [1]; XPG protein 2 + 3): 7.1 m | Median Survival (KM) (sarcoma [1]; XPG protein 2 + 3): 27.7 m | PFS6 (KM) (sarcoma [1]; XPG protein 2 + 3): 55.6% | PFS ≧ 6 Months (sarcoma [1]; XPG protein 2 + 3): 13/25 (50%) | CR + PR (sarcoma [1]; XPG protein IHC score 0 + 1): 8/64 (13%) | CR + PR (sarcoma [1]; XPG protein IHC score 2 + 3): 6/25 (24%) | survival at 12 months (sarcoma [1]; high XPG expression (protein analysis, FIG. 5)): 73.7% | survival at 12 months (sarcoma [1]; high XPG mRNA expression): 61.9% | fold increase in objective response (sarcoma [1]; [3]): 1.9 fold | fold increase in tumor control rate (sarcoma [1]; [3]): 1.6 fold | fold increase in objective response (sarcoma [1]; [4]): 1.85 fold | fold increase in tumor control rate (sarcoma [1]; [4]): 1.43 fold | Median OS (sarcoma [1]; [5]): 13.6 months | Median PFS (sarcoma [1]; [5]): 2.8 months | PFS6 rate (sarcoma [1]; [5]): 36.6% | survival at 12 months (sarcoma [1]; low XPG mRNA expression): 46.2% | survival at 12 months (sarcoma [1]; low XPG protein expression): 45.5% | median duration of the response (CR+PR+MR) (sarcoma [1]; whole cohort): 7.83 months | Median Survival (sarcoma [1]; [6]): 10 months | Median Survival (sarcoma [1]; whole cohort, Kaplan-Meier): 17.7 months | PFS6 rate (sarcoma [1]; whole cohort, Kaplan-Meier): 42.1% | median progression free survival (sarcoma [1]; whole cohort, Kaplan-Meier): 3.8 months | Minor Responses (MR) (sarcoma [2]; 147 evaluable patients): 6.8% | Tumor Control Rate (CR+PR+MR+SD≧6 mo) (sarcoma [2]; 147 evaluable patients): 44.9% | overall response rate (RR), Complete+Partial Responses (sarcoma [2]; 147 evaluable patients): 15.6% | patients achieving progression free survival ≧6 months (PFS6) (sarcoma [2]; 147 evaluable patients): 39.5% | Median PFS (sarcoma [2]; Asp/Asp XPG (W), XPG mRNA < 1.55): 1.8 months | Median PFS (sarcoma [2]; Asp/Asp XPG (W), XPG protein 0 + 1): 2.9 months | Median PFS (sarcoma [2]; Asp/His + His/His XPG (H + M), XPG mRNA < 1.55): 3.3 months | Median PFS (sarcoma [2]; Asp/His + His/His XPG (H + M), XPG protein 0 + 1): 3.3 months | Median OS (sarcoma [2]; H + M, XPG mRNA < 1.55): 9.0 months | OS at 12 months (sarcoma [2]; H + M, XPG mRNA < 1.55): 39.1% | PFS at 6 months (sarcoma [2]; H + M, XPG mRNA < 1.55): 31.3% | Median OS (sarcoma [2]; H + M, XPG mRNA >= 1.55): 5.0 months | Median PFS (sarcoma [2]; H + M, XPG mRNA >= 1.55): 2.9 months | OS at 12 months (sarcoma [2]; H + M, XPG mRNA >= 1.55): 36.9% | PFS at 6 months (sarcoma [2]; H + M, XPG mRNA >= 1.55): 15.4% | Median OS (sarcoma [2]; H + M, XPG protein 0 + 1): 6.2 months | OS at 12 months (sarcoma [2]; H + M, XPG protein 0 + 1): 23.7% | OS at 24 months (sarcoma [2]; H + M, XPG protein 0 + 1): 0% | PFS at 6 months (sarcoma [2]; H + M, XPG protein 0 + 1): 26.3% | Median OS (sarcoma [2]; H + M, XPG protein 2 + 3): 12.2 months | Median PFS (sarcoma [2]; H + M, XPG protein 2 + 3): 3.4 months | OS at 12 months (sarcoma [2]; H + M, XPG protein 2 + 3): 52.6% | OS at 24 months (sarcoma [2]; H + M, XPG protein 2 + 3): 0% | PFS at 6 months (sarcoma [2]; H + M, XPG protein 2 + 3): 27.3% | rate of survival after 2 years (sarcoma [2]; M+H genotype and high XPG mRNA expression): 0% | rate of survival after 2 years (sarcoma [2]; M+H genotype and low XPG mRNA expression): 39.1% | rate of survival after 2 years (sarcoma [2]; W genotype and high XPG mRNA expression): 66.9% | rate of survival after 2 years (sarcoma [2]; W genotype and low XPG mRNA expression): 28.9% | Median OS (sarcoma [2]; W, XPG mRNA < 1.55): 8.6 months | OS at 12 months (sarcoma [2]; W, XPG mRNA < 1.55): 28.9% | PFS at 6 months (sarcoma [2]; W, XPG mRNA < 1.55): 26.3% | Median OS (sarcoma [2]; W, XPG mRNA >= 1.55): 27.7 months | Median PFS (sarcoma [2]; W, XPG mRNA >= 1.55): 17.1 months | OS at 12 months (sarcoma [2]; W, XPG mRNA >= 1.55): 83.7% | PFS at 6 months (sarcoma [2]; W, XPG mRNA >= 1.55): 82.4% | Median OS (sarcoma [2]; W, XPG protein 0 + 1): 11.7 months | OS at 12 months (sarcoma [2]; W, XPG protein 0 + 1): 47.1% | OS at 24 months (sarcoma [2]; W, XPG protein 0 + 1): 40.4% | PFS at 6 months (sarcoma [2]; W, XPG protein 0 + 1): 44.0% | Median OS (sarcoma [2]; W, XPG protein 2 + 3): 27.7 months | Median PFS (sarcoma [2]; W, XPG protein 2 + 3): 8.0 months | OS at 12 months (sarcoma [2]; W, XPG protein 2 + 3): 90.0% | OS at 24 months (sarcoma [2]; W, XPG protein 2 + 3): 90.0% | PFS at 6 months (sarcoma [2]; W, XPG protein 2 + 3): 77.1% | Median PFS (KM) (sarcoma [2]; genotype H): 3.4 months | Median Survival (KM) (sarcoma [2]; genotype H): 6.9 months | PFS6 (KM) (sarcoma [2]; genotype H): 34.6% | survival at 12 months (sarcoma [2]; genotype H): 34.6% | CR + PR + MR + SD ≧ 6 (sarcoma [2]; genotype M): 0 | Median PFS (KM) (sarcoma [2]; genotype M): 1.6 months | Median Survival (KM) (sarcoma [2]; genotype M): 9.1 months | PFS6 (KM) (sarcoma [2]; genotype M): 0% | survival at 12 months (sarcoma [2]; genotype M): 31.3% | Median PFS (KM) (sarcoma [2]; genotype W): 6.4 months | Median Survival (KM) (sarcoma [2]; genotype W): 19.9 months | PFS6 (KM) (sarcoma [2]; genotype W): 50.8% | survival at 12 months (sarcoma [2]; genotype W): 54% | median duration of the response (CR+PR+MR) (sarcoma [2]; whole cohort): 7.83 months | Median Survival (sarcoma [2]; [6]): 9.6 months | surviving patients at two years after treatment (sarcoma [2]; whole cohort, Kaplan-Meier): 34.0% | Median Survival (sarcoma [2]; [7]): 15.4 months | PFS6 rate (sarcoma [2]; [7]): 40.2% | median progression free survival (sarcoma [2]; [7]): 3.4 months
